# In patent publication US9994551B2, “Pyridazine derivatives as RORc modulators” (Genentech, Inc., priority 2015, dated 2018):
# Target: T1, RORc ligand binding domain (Homo sapiens, UniProt P51449)
# T1 construct: host or cells: E. coli
# T1 sequence (P51449 269-508 limits assumed): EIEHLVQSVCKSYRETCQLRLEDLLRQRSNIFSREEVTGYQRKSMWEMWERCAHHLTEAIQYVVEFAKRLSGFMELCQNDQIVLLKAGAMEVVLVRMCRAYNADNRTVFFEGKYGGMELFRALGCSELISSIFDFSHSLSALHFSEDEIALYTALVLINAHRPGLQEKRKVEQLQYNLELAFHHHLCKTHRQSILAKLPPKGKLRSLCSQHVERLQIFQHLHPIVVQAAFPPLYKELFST
# Assay: In vitro RORc ligand binding assay (25-[3H]hydroxycholesterol displacement, filter binding)
row,IC50,Compound
1,5.7 nM,"CC[C@@H](O[C@@]12CC[C@@H](c3cc(-c4c(F)cccc4F)nnc31)C2(C)C)c1nnc(CO)o1 [Compound 32, (5-((R)-1-(((5S,8R)-3-(2,6-difluorophenyl)-9,9-dimethyl-5,6,7,8-tetrahydro-5,8-methanocinnolin-8-yl)oxy)propyl)-1,3,4-oxadiazol-2-yl)methanol]"
2,344 nM,"CC1(C)[C@H]2CC[C@]1([C@H]1CCCN(S(C)(=O)=O)C1)c1nnc(-c3c(F)cccc3F)cc12 [Compound 95, (5R,8R)-3-(2,6-difluorophenyl)-9,9-dimethyl-8-((R)-1-(methylsulfonyl)piperidin-3-yl)-5,6,7,8-tetrahydro-5,8-methanocinnoline]"
3,191 nM,"Cc1n[nH]c(N2CCO[C@@H]([C@@]34CC[C@@H](c5cc(-c6c(F)cccc6F)nnc53)C4(C)C)C2)n1 [Compound 93, (S)-2-((5R,8R)-3-(2,6-difluorophenyl)-9,9-dimethyl-5,6,7,8-tetrahydro-5,8-methanocinnolin-8-yl)-4-(3-methyl-1H-1,2,4-triazol-5-yl)morpholine]"
4,844 nM,"Cc1cc(O[C@@]23CC[C@@H](c4cc(-c5c(F)cccc5F)nnc42)C3(C)C)ccn1 [Compound 25, (5S,8R)-3-(2,6-difluorophenyl)-9,9-dimethyl-8-((2-methylpyridin-4-yl)oxy)-5,6,7,8-tetrahydro-5,8-methanocinnoline]"
5,8.8 nM,"CC[C@@H](O[C@@]12CC[C@@H](c3cc(-c4c(F)cccc4F)nnc31)C2(C)C)C(N)=O [Compound 31, (R)-2-(((5S,8R)-3-(2,6-difluorophenyl)-9,9-dimethyl-5,6,7,8-tetrahydro-5,8-methanocinnolin-8-yl)oxy)butanamide]"
6,91.8 nM,"CC1(C)[C@H]2CC[C@]1(c1cccc3nccn13)c1nnc(-c3c(F)cccc3F)cc12 [Compound 107, (5R,8S)-3-(2,6-difluorophenyl)-8-(imidazo[1,2-a]pyridin-5-yl)-9,9-dimethyl-5,6,7,8-tetrahydro-5,8-methanocinnoline]"
7,340 nM,"CC1(C)[C@H]2CC[C@]1(Oc1nccnc1C(=O)NCCO)c1nnc(-c3c(F)cccc3F)cc12 [Compound 18, 3-(((5S,8R)-3-(2,6-difluorophenyl)-9,9-dimethyl-5,6,7,8-tetrahydro-5,8-methanocinnolin-8-yl)oxy)-N-(2-hydroxyethyl)pyrazine-2-carboxamide]"
8,9.3 nM,"CCO[C@@]12CC[C@@H](c3cc(-c4c(F)cccc4F)nnc31)C2(C)C [Compound 7, (5S,8R)-3-(2,6-difluorophenyl)-8-ethoxy-9,9-dimethyl-5,6,7,8-tetrahydro-5,8-methanocinnoline]"
9,920 nM,"C[C@H](O)C(=O)N(C)[C@@]12CC[C@@H](c3cc(-c4c(F)cccc4F)nnc31)C2(C)C [Compound 1, (S)-N-((5R,8R)-3-(2,6-difluorophenyl)-9,9-dimethyl-5,6,7,8-tetrahydro-5,8-methanocinnolin-8-yl)-2-hydroxy-N-methylpropanamide]"
10,6.2 nM,"CC1(C)[C@H]2CC[C@]1([C@H]1CCCN(C(=O)c3ccon3)C1)c1nnc(-c3c(F)cccc3F)cc12 [Compound 131, [3-[5-(2,6-difluorophenyl)-11,11-dimethyl-3,4-diazatricyclo[6.2.1.02,7]undeca-2,4,6-trien-1-yl]-1-piperidyl]-isoxazol-3-yl-methanone]"
11,40 nM,"CC1(C)[C@H]2CC[C@]1([C@H]1CCCN(c3cccnn3)C1)c1nnc(-c3c(F)cccc3F)cc12 [Compound 169, 5-(2,6-difluorophenyl)-11,11-dimethyl-1-(1-pyridazin-3-yl-3-piperidyl)-3,4-diazatricyclo[6.2.1.02,7]undeca-2,4,6-triene]"
12,74 nM,"CC1(C)[C@H]2CC[C@]1([C@H]1CCCN(C(=O)c3ccc(=O)[nH]n3)C1)c1nnc(-c3c(F)cccc3F)cc12 [Compound 125, 3-[3-[5-(2,6-difluorophenyl)-11,11-dimethyl-3,4-diazatricyclo[6.2.1.02,7]undeca-2,4,6-trien-1-yl]piperidine-1-carbonyl]-1H-pyridazin-6-one]"
13,24 nM,"CNC(=O)N1CCO[C@@H]([C@@]23CC[C@@H](c4cc(-c5c(F)cccc5F)nnc42)C3(C)C)C1 [Compound 74, (S)-2-((5R,8R)-3-(2,6-difluorophenyl)-9,9-dimethyl-5,6,7,8-tetrahydro-5,8-methanocinnolin-8-yl)-N-methylmorpholine-4-carboxamide]"
14,96 nM,"CCOC(=O)c1cn2c([C@@]34CC[C@@H](c5cc(-c6c(F)cccc6F)nnc53)C4(C)C)cccc2n1 [Compound 108, ethyl 5-((5R,8S)-3-(2,6-difluorophenyl)-9,9-dimethyl-5,6,7,8-tetrahydro-5,8-methanocinnolin-8-yl)imidazo[1,2-a]pyridine-2-carboxylate]"
15,13 nM,"CN1CCNC[C@H]1[C@@]12CC[C@@H](c3cc(-c4c(F)cccc4F)nnc31)C2(C)C [Compound 178, 5-(2,6-difluorophenyl)-11,11-dimethyl-1-(1-methylpiperazin-2-yl)-3,4-diazatricyclo[6.2.1.02,7]undeca-2,4,6-triene]"
16,102 nM,CC1(C)[C@H]2CC[C@]1(c1ccn3ccnc3n1)c1nnc(-c3c(F)cccc3F)cc12 [Compound 106]
17,132 nM,CC1(C)[C@H]2CC[C@]1(O[C@H](C(N)=O)C1CC1)c1nnc(-c3c(F)cccc3F)cc12 [Compound 45]
18,45.3 nM,"CC[C@@H](O[C@@]12CC[C@@H](c3cc(-c4c(F)cccc4F)nnc31)C2(C)C)C(=O)NCc1nnc(C)o1 [Compound 59, (R)-2-(((5S,8R)-3-(2,6-difluorophenyl)-9,9-dimethyl-5,6,7,8-tetrahydro-5,8-methanocinnolin-8-yl)oxy)-N-((5-methyl-1,3,4-oxadiazol-2-yl)methyl)butanamide]"
19,7.6 nM,"CC1(C)[C@H]2CC[C@]1([C@@H]1CN(C3=NC(CO)CO3)CCO1)c1nnc(-c3c(F)cccc3F)cc12 (stereo in doubt) [Compound 140, [2-[2-[5-(2,6-difluorophenyl)-11,11-dimethyl-3,4-diazatricyclo[6.2.1.02,7]undeca-2,4,6-trien-1-yl]morpholin-4-yl]-4,5-dihydrooxazol-4-yl]methanol]"
20,62 nM,"CN1CCN(C(N)=O)[C@@H]([C@@]23CC[C@@H](c4cc(-c5c(F)cccc5F)nnc42)C3(C)C)C1 [Compound 181, 2-[5-(2,6-difluorophenyl)-11,11-dimethyl-3,4-diazatricyclo[6.2.1.02,7]undeca-2,4,6-trien-1-yl]-4-methyl-piperazine-1-carboxamide]"
21,24.1 nM,"CC[C@@H](O[C@@]12CC[C@@H](c3cc(-c4c(F)cccc4F)nnc31)C2(C)C)c1nnc(C)o1 [Compound 20, 2-((R)-1-(((5S,8R)-3-(2,6-difluorophenyl)-9,9-dimethyl-5,6,7,8-tetrahydro-5,8-methanocinnolin-8-yl)oxy)propyl)-5-methyl-1,3,4-oxadiazole]"
22,139 nM,"CC(=O)N1CCC[C@H]([C@@]23CC[C@@H](c4cc(-c5c(F)cccc5F)nnc42)C3(C)C)C1 [Compound 98, 1-((R)-3-((5R,8R)-3-(2,6-difluorophenyl)-9,9-dimethyl-5,6,7,8-tetrahydro-5,8-methanocinnolin-8-yl)piperidin-1-yl)ethanone]"
23,94.8 nM,"CC[C@@H](O[C@@]12CC[C@@H](c3cc(-c4c(F)cccc4F)nnc31)C2(C)C)C(=O)Nc1nnc(C)o1 [Compound 55, (R)-2-(((5S,8R)-3-(2,6-difluorophenyl)-9,9-dimethyl-5,6,7,8-tetrahydro-5,8-methanocinnolin-8-yl)oxy)-N-(5-methyl-1,3,4-oxadiazol-2-yl)butanamide]"
24,101 nM,"Cc1noc(N2CCO[C@@H]([C@@]34CC[C@@H](c5cc(-c6c(F)cccc6F)nnc53)C4(C)C)C2)n1 [Compound 91, (S)-2-((5R,8R)-3-(2,6-difluorophenyl)-9,9-dimethyl-5,6,7,8-tetrahydro-5,8-methanocinnolin-8-yl)-4-(3-methyl-1,2,4-oxadiazol-5-yl)morpholine]"
25,19 nM,"Cc1n[nH]c(N2CCO[C@H]([C@@]34CC[C@@H](c5cc(-c6c(F)cccc6F)nnc53)C4(C)C)C2)n1 [Compound 142, 2-[5-(2,6-difluorophenyl)-11,11-dimethyl-3,4-diazatricyclo[6.2.1.02,7]undeca-2,4,6-trien-1-yl]-4-(3-methyl-1H-1,2,4-triazol-5-yl)morpholine]"
26,827 nM,"CC[C@@H](O[C@@]12CC[C@@H](c3cc(-c4c(F)cccc4F)nnc31)C2(C)C)c1n[nH]c(CO)n1 [Compound 39, (3-((R)-1-(((5S,8R)-3-(2,6-difluorophenyl)-9,9-dimethyl-5,6,7,8-tetrahydro-5,8-methanocinnolin-8-yl)oxy)propyl)-1H-1,2,4-triazol-5-yl)methanol]"
27,74 nM,"CC1(C)[C@H]2CC[C@]1(C1CCC(=O)NC1)c1nnc(-c3c(F)cccc3F)cc12 (stereo partly drawn) [Compound 116, 5-[5-(2,6-difluorophenyl)-11,11-dimethyl-3,4-diazatricyclo[6.2.1.02,7]undeca-2,4,6-trien-1-yl]piperidin-2-one]"
28,515 nM,"CC1(C)[C@H]2CC[C@]1(OCc1ncccn1)c1nnc(-c3c(F)cccc3F)cc12 [Compound 13, (5S,8R)-3-(2,6-difluorophenyl)-9,9-dimethyl-8-(pyrimidin-2-ylmethoxy)-5,6,7,8-tetrahydro-5,8-methanocinnoline]"
29,8.3 nM,"CC1(C)[C@H]2CC[C@]1([C@H]1CCCN(C(=O)c3cn[nH]c3)C1)c1nnc(-c3c(F)cccc3F)cc12 [Compound 167, [3-[5-(2,6-difluorophenyl)-11,11-dimethyl-3,4-diazatricyclo[6.2.1.02,7]undeca-2,4,6-trien-1-yl]-1-piperidyl]-(1H-pyrazol-4-yl)methanone]"
30,66.2 nM,"CC1(C)[C@H]2CC[C@]1([C@H]1CN(C(N)=O)CCO1)c1nnc(-c3c(F)cccc3F)cc12 [Compound 81, (S)-2-((5R,8R)-3-(2,6-difluorophenyl)-9,9-dimethyl-5,6,7,8-tetrahydro-5,8-methanocinnolin-8-yl)morpholine-4-carboxamide]"
